Source: US12110276B2 (Genentech, Inc., priority 2021, dated 2024)

Tests used:
TEAD1 = TEAD1 (Homo sapiens (Human), UniProt P28347); assay: TR-FRET lipid pocket probe competition assay (Lipid HTRF), TEAD1; type: binding; conditions: 4 hours pre-incubation; read-out: Lipid HTRF TEAD1 IC50;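 note: His-tagged TEAD1 with biotinylated probe, detected via Europium anti-His and XL665 streptavidin, probe displacement lowers TR-FRET signal, IC50 from four-parameter nonlinear fit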
Description: His-tagged TEAD proteins are pre-incubated with TEAD project compounds for 30 minutes or 4 hours at room temperature. Biotinylated lipid pocket probes are then added to the TEAD/Compound mixture and incubated for 60 minutes at room temperature. The lipid pocket probe competes with the test compound for the TEAD lipid pocket until equilibrium is reached. After 60 minutes, Europium labelled anti-His (Perkin Elmer #AD0110) and XL665 labelled streptavidin (CIS Bio 610SAXAC) are added to the TEAD/test compound/lipid pocket mixture and incubated for 30 minutes or 4 hours. […] If a TEAD lipid pocket binder such as binds and displaces the lipid pocket probe, the disruption of the TEAD:probe interaction results in a decrease in TR-FRET signal. The potency of compounds as TEAD lipid pocket binders is determined by IC50 value generated using a non-linear 4 parameter curve fit.

TEAD3 = TEAD3 (Homo sapiens (Human), UniProt Q99594); assay: TR-FRET lipid pocket probe competition assay (Lipid HTRF), TEAD3; type: binding; conditions: 4 hours pre-incubation; read-out: Lipid HTRF TEAD3 IC50
Chain of TEAD3 (Q99594 whole entry, species assumed): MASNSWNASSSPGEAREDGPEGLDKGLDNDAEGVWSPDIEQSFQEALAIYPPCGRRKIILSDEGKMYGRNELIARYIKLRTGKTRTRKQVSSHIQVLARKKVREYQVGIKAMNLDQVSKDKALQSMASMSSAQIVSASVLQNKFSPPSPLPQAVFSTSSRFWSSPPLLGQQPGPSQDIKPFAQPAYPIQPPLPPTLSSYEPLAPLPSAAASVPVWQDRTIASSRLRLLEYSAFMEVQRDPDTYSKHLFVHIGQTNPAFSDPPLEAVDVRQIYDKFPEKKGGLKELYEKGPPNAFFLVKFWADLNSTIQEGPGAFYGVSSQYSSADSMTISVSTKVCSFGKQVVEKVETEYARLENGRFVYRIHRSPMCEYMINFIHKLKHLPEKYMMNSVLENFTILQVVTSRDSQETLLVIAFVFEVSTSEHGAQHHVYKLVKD

TEAD4 = TEAD4 (Homo sapiens (Human), UniProt Q15561); assay: TR-FRET lipid pocket probe competition assay (Lipid HTRF), TEAD4; type: binding; conditions: 4 hours pre-incubation; read-out: Lipid HTRF TEAD4 IC50;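 note: His-tagged TEAD4 with biotinylated lipid-pocket probe, read by Europium anti-His and XL665 streptavidin, where probe displacement lowers the TR-FRET signal, IC50 from a four-parameter fit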
Chain of TEAD4 (Q15561 whole entry, species assumed): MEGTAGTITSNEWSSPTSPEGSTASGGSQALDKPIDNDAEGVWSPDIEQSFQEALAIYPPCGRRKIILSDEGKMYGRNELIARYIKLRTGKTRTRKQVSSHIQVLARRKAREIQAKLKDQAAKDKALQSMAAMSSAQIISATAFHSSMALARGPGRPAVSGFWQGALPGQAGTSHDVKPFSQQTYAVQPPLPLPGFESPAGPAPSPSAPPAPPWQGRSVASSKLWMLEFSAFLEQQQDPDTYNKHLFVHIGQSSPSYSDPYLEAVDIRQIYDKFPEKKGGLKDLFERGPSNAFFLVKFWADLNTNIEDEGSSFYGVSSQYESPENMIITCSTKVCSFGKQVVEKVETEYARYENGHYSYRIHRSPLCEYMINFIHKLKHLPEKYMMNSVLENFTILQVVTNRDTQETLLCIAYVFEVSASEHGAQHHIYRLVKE

TEAD2 = TEAD2 (Homo sapiens (Human), UniProt Q15562);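 note: TR-FRET competition assay with His-tagged TEAD protein and a biotinylated lipid pocket probe, compound pre-incubated 30 min or 4 h at room temperature, displacement lowers signal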
Chain of TEAD2 (Q15562 whole entry, species assumed): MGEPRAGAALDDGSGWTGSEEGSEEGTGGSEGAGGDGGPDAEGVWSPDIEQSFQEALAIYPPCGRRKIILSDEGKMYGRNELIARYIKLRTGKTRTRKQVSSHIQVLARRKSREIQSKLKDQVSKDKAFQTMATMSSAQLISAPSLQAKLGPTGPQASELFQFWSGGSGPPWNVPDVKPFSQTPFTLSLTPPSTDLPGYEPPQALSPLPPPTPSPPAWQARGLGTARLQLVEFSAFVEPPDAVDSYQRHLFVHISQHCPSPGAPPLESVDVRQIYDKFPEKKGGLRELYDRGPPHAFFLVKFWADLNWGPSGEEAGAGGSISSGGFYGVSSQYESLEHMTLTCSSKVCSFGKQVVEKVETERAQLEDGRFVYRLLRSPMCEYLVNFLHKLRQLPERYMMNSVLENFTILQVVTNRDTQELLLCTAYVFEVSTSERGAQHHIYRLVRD

Chain of TEAD1 (P28347 whole entry, species assumed): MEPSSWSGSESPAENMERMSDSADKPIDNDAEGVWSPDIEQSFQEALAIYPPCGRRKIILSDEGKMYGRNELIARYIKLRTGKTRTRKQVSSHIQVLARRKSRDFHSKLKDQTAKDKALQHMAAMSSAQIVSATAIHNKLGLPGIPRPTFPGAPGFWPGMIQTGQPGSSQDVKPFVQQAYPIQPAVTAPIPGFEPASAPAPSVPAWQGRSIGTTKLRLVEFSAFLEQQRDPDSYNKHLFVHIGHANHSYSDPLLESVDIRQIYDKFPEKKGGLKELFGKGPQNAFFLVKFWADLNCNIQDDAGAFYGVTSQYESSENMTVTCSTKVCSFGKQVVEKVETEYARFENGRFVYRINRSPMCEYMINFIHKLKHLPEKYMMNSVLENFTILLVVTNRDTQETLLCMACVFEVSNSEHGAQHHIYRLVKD

SMILES	IC50 (TEAD1)	IC50 (TEAD3)	IC50 (TEAD4)	IC50 (TEAD2)
C=CC(=O)NCc1nn(-c2ccc(OC(F)(F)F)cc2)c2nccc([C@@H](O)CO)c12 (stereo in doubt) [Compound 16, N-((4-(1,2-dihydroxyethyl)-1-(4-(trifluoromethoxy)phenyl)-1H-pyrazolo[3,4-b]pyridin-3-yl)methyl)acrylamide]	230 nM	680 nM	61 nM	120 nM
C=CC(=O)NCc1nn(-c2ccc(OC(F)(F)F)cc2)c2nccc(N3CCC[C@H](O)C3)c12 (stereo in doubt) [Compound 33, N-((4-(3-hydroxypiperidin-1-yl)-1-(4-(trifluoromethoxy)phenyl)-1H-pyrazolo[3,4-b]pyridin-3-yl)methyl)acrylamide]	25 nM	17000 nM	11 nM	110 nM
C=CC(=O)NCc1nn(-c2ccc(OC(F)(F)F)cc2)c2nccc(N3CCC[C@@H](O)C3)c12 (stereo in doubt) [Compound 65, N-((4-(3-hydroxypiperidin-1-yl)-1-(4-(trifluoromethoxy)phenyl)-1H-pyrazolo[3,4-b]pyridin-3-yl)methyl)acrylamide]	150 nM	27000 nM	31 nM	99 nM
C=C(F)C(=O)N1CC(c2nn(-c3ccc(OC(F)(F)F)cc3)c3nccc([C@@H](O)CO)c23)C1 [Compound 21, 1-[3-[4-[(1R)-1,2-dihydroxyethyl]-1-[4-(trifluoromethoxy)phenyl]pyrazolo[3,4-b]pyridin-3-yl]azetidin-1-yl]-2-fluoro-prop-2-en-1-one]	21.5 nM	38.5 nM	13 nM	7.2 nM
C=CC(=O)NCc1nn(-c2ccc(OC(F)(F)F)cc2)c2nccc(NC(=O)CO)c12 [Compound 24, N-((4-(2-Hydroxyacetamido)-1-(4-(trifluoromethoxy)phenyl)-1H-pyrazolo[3,4-b]pyridin-3-yl)methyl)acrylamide]	18.5 nM	405 nM	45.5 nM	130 nM
O=C(/C=C\Cl)NCc1nn(-c2ccc(OC(F)(F)F)cc2)c2nccc([C@@H](O)CO)c12 [Compound 26, (R,Z)-3-chloro-N-((4-(1,2-dihydroxyethyl)-1-(4-(trifluoromethoxy)phenyl)-1H-pyrazolo[3,4-b]pyridin-3-yl)methyl)acrylamide]	140 nM	50000 nM	14 nM	160 nM
C=C(F)C(=O)N1CC(c2nn(-c3ccc(OC(F)(F)F)cc3)c3nccc(-c4cnn(CCO)c4)c23)C1 [Compound 28, 2-Fluoro-1-(3-(4-(1-(2-hydroxyethyl)-1H-pyrazol-4-yl)-1-(4-(trifluoromethoxy)phenyl)-1H-pyrazolo[3,4-b]pyridin-3-yl)azetidin-1-yl)prop-2-en-1-one]	23 nM	5700 nM	33 nM	220 nM
C=C(F)C(=O)N1CC(c2nn(-c3ccc(OC(F)(F)F)cc3)c3nccc([C@H](O)CO)c23)C1 [Compound 31, (S)-1-(3-(4-(1,2-dihydroxyethyl)-1-(4-(trifluoromethoxy)phenyl)-1H-pyrazolo[3,4-b]pyridin-3-yl)azetidin-1-yl)-2-fluoroprop-2-en-1-one]	35 nM	62 nM	25.5 nM	32 nM
C=CC(=O)NCc1nn(-c2ccc(OC(F)(F)F)cc2)c2nccc(O[C@H]3C[C@@H](O)C3)c12 [Compound 34, N-((4-(cis-3-Hydroxycyclobutoxy)-1-(4-(trifluoromethoxy)phenyl)-1H-pyrazolo[3,4-b]pyridin-3-yl)methyl)acrylamide]	23 nM	50000 nM	39 nM	340 nM
C=CC(=O)NCc1nn(-c2ccc(OC(F)(F)F)cc2)c2nccc(-c3cnn(CCO)c3)c12 [Compound 35, N-((4-(1-(2-Hydroxyethyl)-1H-pyrazol-4-yl)-1-(4-(trifluoromethoxy)phenyl)-1H-pyrazolo[3,4-b]pyridin-3-yl)methyl)acrylamide]	17 nM	640 nM	14 nM	170 nM
O=C(/C=C/Cl)NCc1nn(-c2ccc(OC(F)(F)F)cc2)c2nccc(CO)c12 [Compound 37, (E)-3-Chloro-N-((4-(hydroxymethyl)-1-(4-(trifluoromethoxy)phenyl)-1H-pyrazolo[3,4-b]pyridin-3-yl)methyl)acrylamide]	6.9 nM	33 nM	3.2 nM	14 nM
C=CC(=O)NCc1nn(-c2ccc(OC(F)(F)F)cc2)c2nccc([C@H]3C[C@@H](O)C3)c12 [Compound 38, N-((4-(cis-3-Hydroxycyclobutyl)-1-(4-(trifluoromethoxy)phenyl)-1H-pyrazolo[3,4-b]pyridin-3-yl)methyl)acrylamide]	180 nM	50000 nM	39 nM	100 nM
C=CC(=O)NCc1nn(-c2ccc(OC(F)(F)F)cc2)c2nccc([C@H](O)COC(C)=O)c12 [Compound 146, (S)-2-(3-(Acrylamidomethyl)-1-(4-(trifluoromethoxy)phenyl)-1H-pyrazolo[3,4-b]pyridin-4-yl)-2-hydroxyethyl acetate]	40 nM		28 nM	66 nM

Other lines, results leading:

IC50 (TEAD1)	IC50 (TEAD3)	IC50 (TEAD4)	IC50 (TEAD2)	SMILES
100 nM	560 nM	49 nM	180 nM	C=CC(=O)NCc1nn(-c2ccc(S(F)(F)(F)(F)F)cc2)c2cccc([C@@H](O)CO)c12 (single isomer, unassigned) [Compound 10, N-((4-(1,2-dihydroxyethyl)-1-(4-(pentafluoro-λ^6-sulfanyl)phenyl)-1H-indazol-3-yl)methyl)acrylamide]
23 nM	1300 nM	17 nM	86 nM	C=CC(=O)NCc1nn(-c2ccc(S(F)(F)(F)(F)F)cc2)c2cccc([C@H](O)CO)c12 (single isomer, unassigned) [Compound 11, N-((4-(1,2-dihydroxyethyl)-1-(4-(pentafluoro-λ^6-sulfanyl)phenyl)-1H-indazol-3-yl)methyl)acrylamide]
7 nM	210 nM	7.9 nM	250 nM	C=CC(=O)NCc1nn(-c2ccc(S(F)(F)(F)(F)F)cc2)c2ccccc12 [Compound 3, N-((1-(4-(pentafluoro-λ^6-sulfanyl)phenyl)-1H-indazol-3-yl)methyl)acrylamide]
23 nM	270 nM	59 nM	140 nM	C=CC(=O)NCc1nn(-c2ccc(OC(F)(F)F)cc2)c2cccc(CO)c12 [Compound 4, N-((4-(hydroxymethyl)-1-(4-(trifluoromethoxy)phenyl)-1H-indazol-3-yl)methyl)acrylamide]
17 nM	270 nM	37 nM	310 nM	C=CC(=O)NCc1nn(-c2ccc(S(F)(F)(F)(F)F)cc2)c2cccc(CO)c12 [Compound 5, N-((4-(hydroxymethyl)-1-(4-(pentafluoro-λ^6-sulfanyl)phenyl)-1H-indazol-3-yl)methyl)acrylamide]
48 nM	630 nM	43 nM	2800 nM	C=CC(=O)NCc1nn(-c2ccc(S(F)(F)(F)(F)F)cc2)c2cccnc12 [Compound 12, N-((1-(4-(pentafluoro-λ^6-sulfanyl)phenyl)-1H-pyrazolo[4,3-b]pyridin-3-yl)methyl)acrylamide]
10 nM	230 nM	8.6 nM	330 nM	C=CC(=O)NCc1nn(-c2ccc(S(F)(F)(F)(F)F)cc2)c2ncccc12 [Compound 13, N-((1-(4-(pentafluoro-λ^6-sulfanyl)phenyl)-1H-pyrazolo[3,4-b]pyridin-3-yl)methyl)acrylamide]
84 nM	140 nM	33 nM	50000 nM	C=CC(=O)NCc1nn(-c2ccc(S(F)(F)(F)(F)F)cc2)c2cccc(C#N)c12 [Compound 14, N-((4-cyano-1-(4-(pentafluoro-λ^6-sulfanyl)phenyl)-1H-indazol-3-yl)methyl)acrylamide]
6.8 nM	100 nM	3.4 nM	66 nM	C=CC(=O)N(C)Cc1nn(-c2ccc(OC(F)(F)F)cc2)c2ccccc12 [Compound 18, N-methyl-N-((1-(4-(trifluoromethoxy)phenyl)-1H-indazol-3-yl)methyl)acrylamide]
960 nM	3700 nM	95 nM	6000 nM	C=CC(=O)NCc1nn(-c2ccc(OC(F)(F)F)cc2)c2nccc(C(=O)NCCO)c12 [Compound 25, 3-(Acrylamidomethyl)-N-(2-hydroxyethyl)-1-(4-(trifluoromethoxy)phenyl)-1H-pyrazolo[3,4-b]pyridine-4-carboxamide]
490 nM	2600 nM	180 nM	1500 nM	C=CC(=O)NCc1nn(-c2ccc(OC(F)(F)F)cc2)c2nccc(C(=O)NC)c12 [Compound 30, 3-(Acrylamidomethyl)-N-methyl-1-(4-(trifluoromethoxy)phenyl)-1H-pyrazolo[3,4-b]pyridine-4-carboxamide]
13 nM	220 nM	25 nM	57 nM	C=CC(=O)NCc1nn(-c2ccc(OC(F)(F)F)cc2)c2nccc(CO)c12 [Compound 32, N-((4-(Hydroxymethyl)-1-(4-(trifluoromethoxy)phenyl)-1H-pyrazolo[3,4-b]pyridin-3-yl)methyl)acrylamide]
9.2 nM	500 nM	5.8 nM	120 nM	C=CC(=O)NCc1nn(-c2ccc(OC(F)(F)F)cc2)c2nccc(NCCO)c12 [Compound 36, N-((4-((2-Hydroxyethyl)amino)-1-(4-(trifluoromethoxy)phenyl)-1H-pyrazolo[3,4-b]pyridin-3-yl)methyl)acrylamide]
